In ChEMBL document CHEMBL3608204, “neo-Clerodane Diterpenoids from Scutellaria barbata and Their Inhibitory Effects on LPS-Induced Nitric Oxide Production” (J Nat Prod, 2015):
pIC50: −log10 of the molar value.

How the values were obtained:
RAW264.7 [1] = assay: Cytotoxicity against mouse RAW264.7 cells assessed as cell viability at IC50 by colorimetric assay; assay type: cell-based
RAW264.7 [2] = assay: Inhibition of LPS-induced nitric oxide production in mouse RAW264.7 cells after 24 hrs by Griess reaction; assay type: functional, cell-based; conditions: RAW264.7, 24 h

| Structure (SMILES) | pIC50 (RAW264.7 [2]) | Activity (RAW264.7 [1]) |
| --- | --- | --- |
| CC1=CC[C@@H](OC(=O)c2ccccc2)C2[C@@]1(C)[C@@H](OC(=O)c1cccnc1)[C@H](OC(=O)c1ccccc1)[C@]1(C)O[C@]3(CC[C@]21C)COC(=O)C3 (stereo not given in full) | < 4.30 | Non-toxic |
| CC(=O)O[C@H]1[C@H](OC(C)=O)[C@]2(C)O[C@]3(CC[C@]2(C)C2[C@H](OC(=O)c4ccccc4)CC=C(C)[C@@]21C)COC(=O)C3 (stereo not given in full) | < 4.30 | Non-toxic |
| C=C1CCCC2[C@@]1(C)[C@@H](OC(=O)c1ccccc1)[C@H](O)[C@]1(C)O[C@]3(COC(=O)C3)C[C@H](OC(=O)c3ccccc3)[C@]21C (stereo not given in full) | 4.69 | Non-toxic |
| CC1=CCCC2[C@@]1(C)[C@@H](OC(=O)c1cccnc1)[C@H](O)[C@]1(C)O[C@]3(COC(=O)C3)C[C@H](OC(=O)c3cccnc3)[C@]21C (stereo not given in full) | < 4.30 | Non-toxic |
| CC1=CC[C@@H](OC(=O)c2cccnc2)C2[C@@]1(C)[C@@H](OC(=O)c1cccnc1)[C@H](OC(=O)c1ccccc1)[C@]1(C)O[C@]3(CC[C@]21C)COC(=O)C3 (stereo not given in full) | 4.67 | Non-toxic |
| CC1=CC[C@@H](OC(=O)c2cccnc2)C2[C@@]1(C)[C@@H](OC(=O)c1cccnc1)C[C@]1(C)O[C@@]3(CC[C@]21C)COC(=O)C3 (stereo not given in full) | 4.45 | Non-toxic |
| C[C@@]12[C@@H](OC(=O)c3cccnc3)[C@H](OC(=O)c3ccccc3)[C@](C)(O)[C@](C)(/C=C/C3=CC(=O)OC3)[C@H]1CC=C[C@]2(C)O [SCUTEBARBATINE F] | < 4.30 | Non-toxic |

Now from value to compound, other results behind:

| pIC50 (RAW264.7 [2]) | Structure (SMILES) | Activity (RAW264.7 [1]) |
| --- | --- | --- |
| 4.47 | CC1=CC[C@@H](OC(=O)c2ccccc2)C2[C@@]1(C)[C@@H](OC(=O)c1cccnc1)[C@H](O)[C@]1(C)O[C@@]3(CC[C@]21C)COC(=O)C3 (stereo not given in full) | Non-toxic |
| 4.64 | CC1=CCCC2[C@@]1(C)[C@@H](OC(=O)c1cccnc1)[C@H](OC(=O)c1ccccc1)[C@](C)(O)[C@]2(C)/C=C/C1=CC(=O)OC1 (stereo not given in full) | Non-toxic |
| 4.58 | CC1=CCCC2[C@@]1(C)[C@@H](OC(=O)c1cccnc1)[C@H](OC(=O)c1cccnc1)[C@](C)(O)[C@]2(C)/C=C/C1=CC(=O)OC1 (stereo not given in full) | Non-toxic |
| 4.56 | CC1=CCCC2[C@@]1(C)[C@@H](OC(=O)c1ccccc1)[C@H](OC(=O)c1cccnc1)[C@](C)(O)[C@]2(C)/C=C/C1=CC(=O)OC1 (stereo not given in full) | Non-toxic |
| < 4.30 | CC(=O)O[C@@H](CC1=C(O)C(=O)OC1)[C@]1(C)C2CCC=C(C)[C@]2(C)[C@@H](OC(=O)c2cccnc2)[C@H](O)[C@]1(C)O (stereo not given in full) | Non-toxic |
| < 4.30 | CC(=O)O[C@@H](CC1=C(O)C(=O)OC1)[C@]1(C)C2CCC=C(C)[C@]2(C)[C@@H](OC(=O)c2cccnc2)[C@H](OC(=O)c2cccnc2)[C@]1(C)O (stereo not given in full) | Non-toxic |
| < 4.30 | CC(=O)O[C@@H](CC1=C(O)C(=O)OC1)[C@]1(C)C2CCC=C(C)[C@]2(C)[C@@H](OC(=O)c2cccnc2)[C@H](OC(=O)c2ccccc2)[C@]1(C)O (stereo not given in full) | Non-toxic |
| 4.69 | CC1=CC[C@@H](OC(=O)c2ccccc2)C2[C@@]1(C)[C@@H](OC(=O)c1cccnc1)[C@H](OC(=O)c1cccnc1)[C@]1(C)O[C@]3(CC[C@]21C)COC(=O)C3 (stereo not given in full) | Non-toxic |
